One assay addresses EGFR del19/T790M/C797S (Homo sapiens, UniProt P00533, C797S/DEL746-750/T790M). Kind of assay: Biochemical EGFR kinase assay (Lance Ultra TR-FRET), triple mutant del19/T790M/C797S. The method, boiled down: (§1)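 Kinase activity is measured by TR-FRET phosphopeptide detection. Compounds span 0.003 μM to 10 μM; the 1 h reaction at room temperature is quenched with EDTA, then labelled antibody (2 nM) is incubated 60 min before reading.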

The target in the next assay is EGFR L858R/T790M/C797S (Homo sapiens, UniProt P00533, C797S/L858R/T790M). In words: Biochemical EGFR kinase assay (Lance Ultra TR-FRET), triple mutant L858R/T790M/C797S. The method, boiled down: as §1
(In TR-FRET formats the signal depends on donor and acceptor labels being close together.)

The target of the next assay is EGFR del19/C797S (Homo sapiens, UniProt P00533, C797S/DEL746-750). In words: Biochemical EGFR kinase assay (Lance Ultra TR-FRET), double mutant del19/C797S. The procedure, abridged:
as §1

A further assay has as its target EGFR L858R/C797S (Homo sapiens, UniProt P00533, C797S/L858R). Kind of assay: Biochemical EGFR kinase assay (Lance Ultra TR-FRET), double mutant L858R/C797S. The method, boiled down:
as §1

A further assay has as its target EGFR wildtype (WT) (Homo sapiens, UniProt P00533). In words: Biochemical EGFR kinase assay (Lance Ultra TR-FRET), wildtype. The procedure, abridged:
as §1

Setting [1] is: Km ATP, read-out: IC50 del19/T790M/C797S, Km ATP.
Where [2] appears, read: Km ATP, read-out: IC50 L858R/T790M/C797S, Km ATP.
Where [3] appears, read: Km ATP, read-out: IC50 del19/C797S, Km ATP.
The mark [4] stands for this setting: Km ATP, read-out: IC50 L858R/C797S, Km ATP.
Setting [5] is: Km ATP, read-out: IC50 WT, Km ATP.
Setting [6] is: IC50 del19/T790M/C797S (nM) 100 μM ATP, 100 μM ATP.
[7] abbreviates: Km ATP, read-out: IC50 del19/T790M/C797S (nM) Km ATP.
Where [8] appears, read: IC50 L858R/T790M/C797S (nM) 100 μM ATP, 100 μM ATP.
[9] abbreviates: Km ATP, read-out: IC50 L858R/T790M/C797S (nM) Km ATP.
The mark [10] stands for this setting: IC50 del19/C797S (nM) 100 μM ATP, 100 μM ATP.
The mark [11] stands for this setting: Km ATP, read-out: IC50 del19/C797S (nM) Km ATP.
[12] abbreviates: IC50 L858R/C797S (nM) 100 μM ATP, 100 μM ATP.
[13] abbreviates: Km ATP, read-out: IC50 L858R/C797S (nM) Km ATP.
The mark [14] stands for this setting: IC50 WT (nM) 100 μM ATP, 100 μM ATP.
[15] abbreviates: Km ATP, read-out: IC50 WT (nM) Km ATP.

This note sets out measurements from patent US12258327B2, “5-membered heteroaryl-containing aminopyridine compounds as EGFR inhibitors” (YUHAN CORPORATION, priority 2021, dated 2025).

Read-outs that look alike come from different tables or passages of the source.

Sequence of EGFR L858R/C797S (P00533 25-1210 C797S/L858R): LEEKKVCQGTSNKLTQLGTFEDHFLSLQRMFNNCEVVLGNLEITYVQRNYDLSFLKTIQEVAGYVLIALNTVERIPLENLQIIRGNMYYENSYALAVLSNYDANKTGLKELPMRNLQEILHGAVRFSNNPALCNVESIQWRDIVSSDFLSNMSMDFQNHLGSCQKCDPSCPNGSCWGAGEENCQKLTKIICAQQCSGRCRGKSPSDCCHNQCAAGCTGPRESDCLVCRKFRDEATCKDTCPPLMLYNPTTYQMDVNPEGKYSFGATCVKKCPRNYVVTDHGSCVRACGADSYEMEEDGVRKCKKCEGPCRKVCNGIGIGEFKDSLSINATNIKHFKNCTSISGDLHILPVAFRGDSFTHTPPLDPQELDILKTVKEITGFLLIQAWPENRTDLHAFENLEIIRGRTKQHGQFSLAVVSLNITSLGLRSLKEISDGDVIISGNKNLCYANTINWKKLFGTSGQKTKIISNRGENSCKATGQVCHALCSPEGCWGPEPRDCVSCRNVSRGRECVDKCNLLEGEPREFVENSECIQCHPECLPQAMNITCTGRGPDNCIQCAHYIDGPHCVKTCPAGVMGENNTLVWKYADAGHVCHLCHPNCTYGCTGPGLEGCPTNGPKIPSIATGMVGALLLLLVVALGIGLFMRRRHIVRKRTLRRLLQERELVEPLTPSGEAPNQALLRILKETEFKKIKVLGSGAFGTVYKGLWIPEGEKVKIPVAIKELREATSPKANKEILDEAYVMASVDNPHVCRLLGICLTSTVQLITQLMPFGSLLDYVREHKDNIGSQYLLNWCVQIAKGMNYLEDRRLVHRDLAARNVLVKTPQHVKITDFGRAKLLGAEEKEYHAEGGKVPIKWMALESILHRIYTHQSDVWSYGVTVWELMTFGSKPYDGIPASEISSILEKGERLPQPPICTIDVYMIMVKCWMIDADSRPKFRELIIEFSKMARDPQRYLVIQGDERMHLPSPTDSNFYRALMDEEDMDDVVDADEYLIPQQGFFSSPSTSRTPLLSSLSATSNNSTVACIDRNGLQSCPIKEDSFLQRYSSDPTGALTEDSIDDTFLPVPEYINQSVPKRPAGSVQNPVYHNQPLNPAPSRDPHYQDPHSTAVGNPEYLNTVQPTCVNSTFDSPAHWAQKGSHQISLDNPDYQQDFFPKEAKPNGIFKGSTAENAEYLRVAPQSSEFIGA
Sequence of EGFR del19/T790M/C797S (P00533 with tags, fused parts or gaps DEL746-750/T790M/C797S): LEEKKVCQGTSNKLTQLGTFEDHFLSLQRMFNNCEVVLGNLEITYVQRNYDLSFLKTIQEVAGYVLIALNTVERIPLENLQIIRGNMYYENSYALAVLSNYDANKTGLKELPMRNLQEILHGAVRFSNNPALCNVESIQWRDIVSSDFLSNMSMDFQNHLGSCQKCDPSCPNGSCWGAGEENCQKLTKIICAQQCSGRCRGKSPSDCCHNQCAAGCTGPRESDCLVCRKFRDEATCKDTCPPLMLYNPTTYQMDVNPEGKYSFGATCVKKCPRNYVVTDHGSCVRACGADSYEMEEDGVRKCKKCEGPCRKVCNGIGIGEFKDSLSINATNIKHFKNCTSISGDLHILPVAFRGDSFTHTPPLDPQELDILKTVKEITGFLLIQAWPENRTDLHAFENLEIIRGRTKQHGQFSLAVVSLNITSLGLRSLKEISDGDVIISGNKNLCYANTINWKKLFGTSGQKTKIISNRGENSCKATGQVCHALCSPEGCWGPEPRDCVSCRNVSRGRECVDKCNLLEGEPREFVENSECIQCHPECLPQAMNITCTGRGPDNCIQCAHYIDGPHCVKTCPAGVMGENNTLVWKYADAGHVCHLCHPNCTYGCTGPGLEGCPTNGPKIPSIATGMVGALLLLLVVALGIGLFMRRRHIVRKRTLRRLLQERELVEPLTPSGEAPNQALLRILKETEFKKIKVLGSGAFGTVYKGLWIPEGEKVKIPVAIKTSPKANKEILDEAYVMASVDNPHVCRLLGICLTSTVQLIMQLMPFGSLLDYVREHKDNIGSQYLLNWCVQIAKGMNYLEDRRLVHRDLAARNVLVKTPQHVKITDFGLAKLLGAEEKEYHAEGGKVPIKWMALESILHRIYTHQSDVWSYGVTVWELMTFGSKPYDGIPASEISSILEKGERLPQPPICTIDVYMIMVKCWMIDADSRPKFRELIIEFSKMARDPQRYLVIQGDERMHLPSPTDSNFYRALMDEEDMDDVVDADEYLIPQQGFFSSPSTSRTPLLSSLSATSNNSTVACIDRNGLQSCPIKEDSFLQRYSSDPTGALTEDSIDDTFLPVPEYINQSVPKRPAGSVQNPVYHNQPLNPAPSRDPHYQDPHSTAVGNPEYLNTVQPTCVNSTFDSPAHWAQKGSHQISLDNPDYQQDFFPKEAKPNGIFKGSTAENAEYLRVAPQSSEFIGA
Sequence of EGFR del19/C797S (P00533 with tags, fused parts or gaps DEL746-750/C797S): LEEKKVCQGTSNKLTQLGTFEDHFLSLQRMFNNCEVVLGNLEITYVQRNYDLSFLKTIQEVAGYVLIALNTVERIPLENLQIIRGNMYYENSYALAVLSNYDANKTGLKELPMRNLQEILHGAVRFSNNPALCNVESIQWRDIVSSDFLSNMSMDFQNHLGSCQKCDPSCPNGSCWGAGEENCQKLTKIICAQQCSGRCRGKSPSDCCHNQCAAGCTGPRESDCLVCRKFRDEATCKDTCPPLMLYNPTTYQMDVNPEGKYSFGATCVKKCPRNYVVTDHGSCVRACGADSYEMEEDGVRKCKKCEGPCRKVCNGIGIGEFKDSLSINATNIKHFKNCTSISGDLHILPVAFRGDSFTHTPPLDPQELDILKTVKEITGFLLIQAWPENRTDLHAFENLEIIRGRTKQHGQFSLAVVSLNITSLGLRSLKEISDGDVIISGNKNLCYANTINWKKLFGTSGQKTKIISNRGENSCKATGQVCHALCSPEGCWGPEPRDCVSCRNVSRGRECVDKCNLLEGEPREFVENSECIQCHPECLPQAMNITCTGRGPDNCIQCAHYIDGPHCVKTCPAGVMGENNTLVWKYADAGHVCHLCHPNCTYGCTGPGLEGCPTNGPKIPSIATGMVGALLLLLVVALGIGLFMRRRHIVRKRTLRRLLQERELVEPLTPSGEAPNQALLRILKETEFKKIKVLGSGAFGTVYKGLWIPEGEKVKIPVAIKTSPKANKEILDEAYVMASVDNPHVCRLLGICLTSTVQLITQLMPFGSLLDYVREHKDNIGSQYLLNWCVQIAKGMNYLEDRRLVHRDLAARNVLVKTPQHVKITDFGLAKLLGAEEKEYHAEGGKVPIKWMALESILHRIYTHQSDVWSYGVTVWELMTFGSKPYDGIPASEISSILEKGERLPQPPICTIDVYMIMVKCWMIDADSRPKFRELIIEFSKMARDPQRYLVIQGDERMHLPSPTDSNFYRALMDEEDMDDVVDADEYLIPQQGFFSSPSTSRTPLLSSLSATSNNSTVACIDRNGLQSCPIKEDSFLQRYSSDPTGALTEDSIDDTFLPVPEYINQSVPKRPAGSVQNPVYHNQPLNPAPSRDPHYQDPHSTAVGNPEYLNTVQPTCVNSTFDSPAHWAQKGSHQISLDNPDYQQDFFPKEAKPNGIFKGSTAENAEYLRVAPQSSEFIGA
Sequence of EGFR wildtype (WT) (P00533 25-1210): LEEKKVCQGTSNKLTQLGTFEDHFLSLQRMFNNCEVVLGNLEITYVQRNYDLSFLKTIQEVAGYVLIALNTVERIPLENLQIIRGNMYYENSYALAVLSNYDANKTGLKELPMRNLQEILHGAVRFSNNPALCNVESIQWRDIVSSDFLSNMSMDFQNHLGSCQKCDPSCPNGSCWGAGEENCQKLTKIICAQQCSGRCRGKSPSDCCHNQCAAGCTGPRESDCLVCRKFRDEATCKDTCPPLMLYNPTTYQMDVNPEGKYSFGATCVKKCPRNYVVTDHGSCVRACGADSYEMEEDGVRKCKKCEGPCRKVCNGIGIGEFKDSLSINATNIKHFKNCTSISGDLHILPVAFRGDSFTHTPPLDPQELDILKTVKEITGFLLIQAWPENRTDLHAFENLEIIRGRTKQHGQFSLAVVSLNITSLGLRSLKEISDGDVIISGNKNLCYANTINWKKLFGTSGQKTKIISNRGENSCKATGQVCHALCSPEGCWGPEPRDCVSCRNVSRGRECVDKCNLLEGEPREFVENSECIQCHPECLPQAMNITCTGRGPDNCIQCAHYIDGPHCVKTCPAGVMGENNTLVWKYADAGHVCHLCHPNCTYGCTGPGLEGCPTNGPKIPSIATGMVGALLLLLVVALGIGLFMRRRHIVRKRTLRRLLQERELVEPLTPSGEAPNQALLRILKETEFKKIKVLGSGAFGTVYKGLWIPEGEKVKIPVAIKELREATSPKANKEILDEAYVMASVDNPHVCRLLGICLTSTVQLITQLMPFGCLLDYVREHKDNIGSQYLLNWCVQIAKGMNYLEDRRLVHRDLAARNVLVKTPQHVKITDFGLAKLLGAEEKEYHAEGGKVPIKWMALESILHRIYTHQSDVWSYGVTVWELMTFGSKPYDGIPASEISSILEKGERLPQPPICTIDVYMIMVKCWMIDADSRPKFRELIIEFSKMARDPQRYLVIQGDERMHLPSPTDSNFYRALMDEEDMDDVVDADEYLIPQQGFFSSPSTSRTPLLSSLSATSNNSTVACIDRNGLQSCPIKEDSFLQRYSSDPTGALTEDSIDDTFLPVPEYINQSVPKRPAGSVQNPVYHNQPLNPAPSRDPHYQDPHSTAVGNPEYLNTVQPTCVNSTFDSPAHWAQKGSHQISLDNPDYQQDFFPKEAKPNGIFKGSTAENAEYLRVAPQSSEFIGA

In the case of `FC(F)Cn1cc(-c2nccc(Nc3cc(N[C@H]4CC[C@@H](F)CC4)c(-c4ccn(CC(F)(F)F)n4)cn3)n2)cn1` [Example 339, N^2-(2-(1-(2,2-Difluoroethyl)-1H-pyrazol-4-yl)pyrimidin-4-yl)-N^4-((1s,4s)-4-fluorocyclohexyl)-5-(1-(2,2,2-trifluoroethyl)-1H-pyrazol-3-yl)pyridine-2,4-diamine], the IC50 at EGFR del19/T790M/C797S (setting [1]) turned out to be 2.9 nM; at EGFR L858R/T790M/C797S (setting [2]), 0.4 nM; on EGFR del19/C797S (setting [3]) it was 1070 nM; on EGFR L858R/C797S (setting [4]), 113 nM; at EGFR wildtype (WT) (setting [5]), 424 nM.

For the compound `CC1(O)CCC(Nc2cc(Nc3ccnc(-c4cnn(C5CCCCO5)c4)n3)ncc2-c2ccn(C(F)F)n2)CC1` (centres unmarked) [Example 314, (1s,4s)-4-((5-(1-(Difluoromethyl)-1H-pyrazol-3-yl)-2-((2-(1-(tetrahydro-2H-pyran-2-yl)-1H-pyrazol-4-yl)pyrimidin-4-yl)amino)pyridin-4-yl)amino)-1-methylcyclohexan-1-ol], the IC50 on EGFR del19/T790M/C797S (setting [6]) was determined as 5.2 nM; at EGFR del19/T790M/C797S (setting [7]), 1.9 nM; at EGFR L858R/T790M/C797S (setting [8]), 1.9 nM; at EGFR L858R/T790M/C797S (setting [9]), 0.5 nM; at EGFR del19/C797S (setting [10]), 300 nM; on EGFR del19/C797S (setting [11]) it was 133 nM. The IC50 against EGFR L858R/C797S (setting [12]) was 1480 nM; on EGFR L858R/C797S (setting [13]), 75.2 nM; against EGFR wildtype (WT) (setting [14]) it was greater than 10000 nM; on EGFR wildtype (WT) (setting [15]), 595 nM.

Take `O=S(=O)(C1CC1)n1cc(-c2nccc(Nc3cc(NC4CCCC(NCCF)C4)c(-c4ccn(C(F)F)n4)cn3)n2)cn1` (centres unmarked) [Example 194, N^2-(2-(1-(Cyclopropylsulfonyl)-1H-pyrazol-4-yl)pyrimidin-4-yl)-5-(1-(difluoromethyl)-1H-pyrazol-3-yl)-N^4-(3-((2-fluoroethyl)amino)cyclohexyl)pyridine-2,4-diamine]: the IC50 on EGFR del19/T790M/C797S (setting [6]) came to 0.2 nM; on EGFR del19/T790M/C797S (setting [7]), 0.3 nM; against EGFR L858R/T790M/C797S (setting [8]), 0.6 nM; on EGFR L858R/T790M/C797S (setting [9]), 0.1 nM; at EGFR del19/C797S (setting [10]), 7.5 nM; at EGFR del19/C797S (setting [11]) it was 4.4 nM. For the same compound, the IC50 against EGFR L858R/C797S (setting [12]) is 32.1 nM; at EGFR L858R/C797S (setting [13]), 5.8 nM; against EGFR wildtype (WT) (setting [14]) it was greater than 10000 nM; on EGFR wildtype (WT) (setting [15]) it was 19.9 nM.

In the case of `Cc1nn(CC(F)(F)F)cc1-c1cc(Nc2ncc(-c3cc(C(F)(F)F)n(C)n3)c(N[C@H]3CC[C@@](C)(O)CC3)n2)ccn1` [Example 369, (1s,4s)-1-Methyl-4-((2-((2-(3-methyl-1-(2,2,2-trifluoroethyl)-1H-pyrazol-4-yl)pyridin-4-yl)amino)-5-(1-methyl-5-(trifluoromethyl)-1H-pyrazol-3-yl)pyrimidin-4-yl)amino)cyclohexan-1-ol], the IC50 was 3.1 nM on EGFR del19/T790M/C797S (setting [1]); 1 nM on EGFR L858R/T790M/C797S (setting [2]); 8.1 nM on EGFR del19/C797S (setting [3]); 10.1 nM at EGFR L858R/C797S (setting [4]); 72.7 nM at EGFR wildtype (WT) (setting [5]).

With `O=S(=O)(C1CC1)n1cc(-c2nccc(Nc3cc(N[C@H]4CC[C@@H](O)CC4)c(-c4cnn(C(F)F)c4)cn3)n2)cn1` [Example 77, (1s,4s)-4-((2-((2-(1-(Cyclopropylsulfonyl)-1H-pyrazol-4-yl)pyrimidin-4-yl)amino)-5-(1-(difluoromethyl)-1H-pyrazol-4-yl)pyridin-4-yl)amino)cyclohexan-1-ol], the IC50 is 8.8 nM at EGFR del19/T790M/C797S (setting [6]); 11.4 nM on EGFR L858R/T790M/C797S (setting [8]); 80.8 nM on EGFR del19/C797S (setting [10]); 479 nM against EGFR L858R/C797S (setting [12]); greater than 10000 nM against EGFR wildtype (WT) (setting [14]).

For the compound `O=S(=O)(C1CC1)n1cc(-c2nccc(Nc3cc(NC[C@H]4CC[C@H](O)CC4)c(-c4ccn(C(F)F)n4)cn3)n2)cn1` [Example 31, (1r,4r)-4-(((2-((2-(1-(Cyclopropylsulfonyl)-1H-pyrazol-4-yl)pyrimidin-4-yl)amino)-5-(1-(difluoromethyl)-1H-pyrazol-3-yl)pyridin-4-yl)amino)methyl)cyclohexan-1-ol], the IC50 against EGFR del19/T790M/C797S (setting [6]) amounted to 1.3 nM; at EGFR del19/T790M/C797S (setting [7]) it was 0.4 nM; at EGFR L858R/T790M/C797S (setting [9]) it was 0.2 nM; on EGFR del19/C797S (setting [10]) it was 1.3 nM; on EGFR del19/C797S (setting [11]), 0.5 nM; on EGFR L858R/C797S (setting [12]), 18.7 nM. Besides, the IC50 on EGFR L858R/C797S (setting [13]) is 1.3 nM; at EGFR wildtype (WT) (setting [14]) it was greater than 10000 nM; at EGFR wildtype (WT) (setting [15]), 10.5 nM.

In the case of `C=CCn1cc(-c2nccc(Nc3cc(N[C@H]4CC[C@@](C)(O)CC4)c(-c4ccn(C(F)F)n4)cn3)n2)cn1` [Example 116, (1s,4s)-4-((2-((2-(1-Allyl-1H-pyrazol-4-yl)pyrimidin-4-yl)amino)-5-(1-(difluoromethyl)-1H-pyrazol-3-yl)pyridin-4-yl)amino)-1-methylcyclohexan-1-ol], the IC50 is 0.6 nM on EGFR del19/T790M/C797S (setting [7]); 0.7 nM on EGFR L858R/T790M/C797S (setting [9]); 27.6 nM at EGFR del19/C797S (setting [11]); 5 nM on EGFR L858R/C797S (setting [13]); 77.2 nM at EGFR wildtype (WT) (setting [15]).

`CN(C)CCNC1CCC(Nc2cc(Nc3ccnc(-c4cnn(S(=O)(=O)C5CC5)c4)n3)ncc2-c2ccn(C(F)F)n2)CC1` (centres unmarked) [Example 99, N^2-(2-(1-(cyclopropylsulfonyl)-1H-pyrazol-4-yl)pyrimidin-4-yl)-5-(1-(difluoromethyl)-1H-pyrazol-3-yl)-N4-(4-((2-(dimethylamino)ethyl)amino)cyclohexyl)pyridine-2,4-diamine]: the IC50 against EGFR del19/T790M/C797S (setting [6]) came to 0.5 nM; against EGFR L858R/T790M/C797S (setting [8]) it was 0.8 nM; at EGFR del19/C797S (setting [10]), 1.7 nM; on EGFR L858R/C797S (setting [12]), 4.8 nM; at EGFR wildtype (WT) (setting [14]), 612 nM.

Consider `CN(C)C(=O)[C@H]1CC[C@@H](Nc2cc(Nc3ccnc(-c4cnn(S(=O)(=O)C5CC5)c4)n3)ncc2-c2cc(C(F)(F)F)n(C)n2)CC1` [Example 257, (1s,4s)-4-((2-((2-(1-(Cyclopropylsulfonyl)-1H-pyrazol-4-yl)pyrimidin-4-yl)amino)-5-(1-methyl-5-(trifluoromethyl)-1H-pyrazol-3-yl)pyridin-4-yl)amino)-N,N-dimethylcyclohexane-1-carboxamide], for which the IC50 against EGFR del19/T790M/C797S (setting [6]) was 3.7 nM; at EGFR del19/T790M/C797S (setting [7]), 4.3 nM; at EGFR L858R/T790M/C797S (setting [8]), 1.6 nM; at EGFR L858R/T790M/C797S (setting [9]), 1.1 nM; against EGFR del19/C797S (setting [10]) it was 6 nM; at EGFR del19/C797S (setting [11]), 2.1 nM. The IC50 at EGFR L858R/C797S (setting [12]) came out at 29.1 nM; at EGFR L858R/C797S (setting [13]), 5.2 nM; against EGFR wildtype (WT) (setting [14]), 294 nM; on EGFR wildtype (WT) (setting [15]) it was 7.5 nM.

In the case of `CC(C)n1ccc(-c2cnc(Nc3ccnc(-c4cnn(S(=O)(=O)C5CC5)c4)n3)cc2N[C@H]2CC[C@@H](O)CC2)n1` [Example 82, (1s,4s)-4-((2-((2-(1-(Cyclopropylsulfonyl)-1H-pyrazol-4-yl)pyrimidin-4-yl)amino)-5-(1-isopropyl-1H-pyrazol-3-yl)pyridin-4-yl)amino)cyclohexan-1-ol], the IC50 on EGFR del19/T790M/C797S (read-out: IC50 del19/T790M/C797S (nM) 100 μM ATP, 100 μM ATP) is 1.7 nM; at EGFR L858R/T790M/C797S (read-out: IC50 L858R/T790M/C797S (nM) 100 μM ATP, 100 μM ATP), 1.8 nM; at EGFR del19/C797S (read-out: IC50 del19/C797S (nM) 100 μM ATP, 100 μM ATP), 2.1 nM; on EGFR L858R/C797S (read-out: IC50 L858R/C797S (nM) 100 μM ATP, 100 μM ATP) it was 3.9 nM; on EGFR wildtype (WT) (read-out: IC50 WT (nM) 100 μM ATP, 100 μM ATP) it was 2410 nM.

For `CC1(O)CCC(Nc2cc(Nc3ccnc(N4CCC(F)(F)C(O)C4)n3)ncc2-c2ccn(C(F)F)n2)CC1` (centres unmarked) [Example 350, 1-(4-((5-(1-(Difluoromethyl)-1H-pyrazol-3-yl)-4-(((1s,4s)-4-hydroxy-4-methylcyclohexyl)amino)pyridin-2-yl)amino)pyrimidin-2-yl)-4,4-difluoropiperidin-3-ol], the IC50 on EGFR del19/T790M/C797S (setting [1]) came out at 4.2 nM; on EGFR L858R/T790M/C797S (setting [2]), 2.6 nM; on EGFR del19/C797S (setting [3]), 95.1 nM; on EGFR L858R/C797S (setting [4]), 117 nM; on EGFR wildtype (WT) (setting [5]), 261 nM.
